# From patent publication US20260125686A1, “COMPOSITIONS AND METHODS FOR MODULATION OF CFTR” (Cystic Fibrosis Foundation, priority 2022, published 2026)
# Molecular target: Exon 22 truncated CFTR (Homo sapiens, UniProt P13569)
# Assay: TECC-24 assay in 16HBEge-W1282X cells
# Format: cell-based
# Set-up: contain the first 1239 amino acids of a WT CFTR; endogenous in cells
# Details: for FSK+VX-770 AUC/min: in combination SA-08 10 μM
# Experimental: Electrophysiology. Clonal lines were seeded at a density of 4.5×10^5 cells cm-2 onto HTS Transwell 24-well filter inserts pre-coated with human collagen type IV. Cells were grown as submerged cultures in MEM (Gibco, 11095) containing 10% FBS and 1% Pen/Strep, and incubated at 37° C. and 5% CO2. Cells were treated from both the basolateral and apical side with fresh medium containing either control (vehicle) or test article for the treatment time indicated in the figure legends. After a total of 7 days, 16HBE cells typically formed electrically tight epithelia with a transepithelial resistance (Rt) of 200-600 Ω·cm2 and CFTR-mediated Cl— equivalent current (Ieq) was determined as described below.
# Prior to functional (Ieq) studies, MEM was replaced with fresh HEPES-buffered (pH 7.4) solutions (assay buffer). A driving force for chloride ions was established through application of a basolateral to apical chloride ion gradient (see buffer composition below). Cell plates were mounted onto an automated robotic assay platform and equilibrated at ˜36° C. for 90 min. After equilibration, transepithelial voltage (Vt) and resistance (Rt) were monitored at ˜5 min intervals using a 24-channel transepithelial current clamp amplifier (TECC-24, EP Design, Bertem, Belgium). Electrode potential differences for each pair of Ag/AgCl voltage electrodes were also monitored at 5 min intervals by taking voltage measurements from a control plate with matching buffer solutions and 16HBE cells that were left untreated. Ieq was calculated from values of Vt and Rt using Ohm's law after correcting for series resistance and (electrode) voltage offsets unrelated to Vt. Ieq traces are plotted as mean±SD (n=3). The first 4 data points reflect baseline Ieq currents prior to sequential stimulation of CFTR with forskolin (10 μM) and VX-770/ivacaftor (1 μM). The last six data points were recorded in the presence of CFTR inhibitor CFTRinh-172 (20 μM). Agonists/antagonists were pre-diluted to 10-fold concentrations in assay buffer and add-ed to either the basolateral (forskolin) or apical (forskolin, VX-770/ivacaftor, and CFTRinh-172) side of the membrane (assay plates only). CFTR-mediated changes in Ieq, (i.e., delta forskolin, delta VX-770, delta CFTRinh-172, or the area under the curve (AUC) between forskolin and CFTRinh-172 addition) are used as a measure of functional CFTR surface expression or treatment-related functional rescue of mutant CFTR.
# Assay buffer: CFTR-mediated transepithelial currents were recorded using a Cl— concentration gradient. The basolateral solution contained (mM): 137 NaCl, 4 KCl, 1.8 CaCl2, 1 MgCl2, 10 HEPES and D-Glucose, adjusted to pH 7.4 with NaOH/HCl ([CI-] total: 146.6 mM). The apical solution was matched to the basolateral except for (mM): 137 Na-gluconate replaced 137 NaCl ([Cl—] total: 9.6 mM).
# The function of Exon 22 truncated CFTR protein was assayed by the transepithelial chloride conductance assay (TECC-24 assay), as depicted in FIG. 15A and FIG. 15B. 16HBEge-W1282X cells were incubated in 0.02% DMSO (vehicle) or VX445/VX661 prior to the TECC assay. Characteristic CFTR responses to forskolin, potentiator (VX-770), and CFTR inhibition (Inh-172) were recorded in the presence and absence of various doses and combinations of ASO treatments. […] ASO treatment further induced a larger chloride channel conductance compared to no ASO treatment.
# The function of various CFTR proteins in the cells can be assessed by comparing the area under curve (AUC) of the induced chloride conductance obtained in the electrophysiology assays. The AUC of various mutant cell lines (e.g., 16HBEge-W1282X cells), with or without treatment, can be normalized to the AUC obtained from cells expressing WT CFTR protein and expressed as either a percentage of WT CFTR (% WT CFTR) or a ratio to WT CFTR (variant/WT CFTR). […]
# Exon 22 truncated CFTR, sequence (P13569 with tags, fused parts or gaps): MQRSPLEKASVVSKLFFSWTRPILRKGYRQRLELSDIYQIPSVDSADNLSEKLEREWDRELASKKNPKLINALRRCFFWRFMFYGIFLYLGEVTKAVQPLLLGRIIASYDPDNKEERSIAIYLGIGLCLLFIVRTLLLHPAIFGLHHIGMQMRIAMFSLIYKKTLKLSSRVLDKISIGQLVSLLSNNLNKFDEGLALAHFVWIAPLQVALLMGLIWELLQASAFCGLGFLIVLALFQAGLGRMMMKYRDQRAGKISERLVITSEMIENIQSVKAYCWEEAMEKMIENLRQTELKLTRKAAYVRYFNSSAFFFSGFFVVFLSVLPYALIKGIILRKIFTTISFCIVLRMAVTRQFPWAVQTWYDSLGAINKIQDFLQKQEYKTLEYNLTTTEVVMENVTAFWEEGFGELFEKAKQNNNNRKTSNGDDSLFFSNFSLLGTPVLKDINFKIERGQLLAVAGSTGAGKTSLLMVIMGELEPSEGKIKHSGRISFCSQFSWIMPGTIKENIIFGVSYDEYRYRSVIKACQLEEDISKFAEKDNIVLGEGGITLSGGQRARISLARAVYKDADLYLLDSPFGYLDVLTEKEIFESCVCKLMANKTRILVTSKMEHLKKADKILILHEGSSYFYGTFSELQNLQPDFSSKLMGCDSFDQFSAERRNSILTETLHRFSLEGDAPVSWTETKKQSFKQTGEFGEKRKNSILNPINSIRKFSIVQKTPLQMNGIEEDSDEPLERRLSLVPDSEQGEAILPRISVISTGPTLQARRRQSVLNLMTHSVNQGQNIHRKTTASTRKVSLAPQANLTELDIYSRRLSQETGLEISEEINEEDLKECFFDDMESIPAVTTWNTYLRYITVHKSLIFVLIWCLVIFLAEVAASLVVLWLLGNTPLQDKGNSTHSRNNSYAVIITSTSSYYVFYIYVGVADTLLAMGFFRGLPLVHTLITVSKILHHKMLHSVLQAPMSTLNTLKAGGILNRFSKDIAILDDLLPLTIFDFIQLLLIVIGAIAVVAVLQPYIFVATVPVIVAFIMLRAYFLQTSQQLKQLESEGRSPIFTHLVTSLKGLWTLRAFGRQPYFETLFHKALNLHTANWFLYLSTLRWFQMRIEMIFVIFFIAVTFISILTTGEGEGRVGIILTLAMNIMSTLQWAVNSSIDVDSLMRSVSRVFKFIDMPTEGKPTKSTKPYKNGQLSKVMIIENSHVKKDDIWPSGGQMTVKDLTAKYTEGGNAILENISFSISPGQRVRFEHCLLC
substance,measurement,setting,value
"aaagcaagcagtgttcaaatct (antisense AAAGCAAGCAGTGTTCAAATCT; all 2'-MOE, all phosphorothioate, methylation of C not given here) [SD10, PS backbone, 2′-MOE]","chloride conductance AUC, of WT","10 μM SD10, with Trikafta",about 9%
same,increase in AUC (of WT),"10 μM SD10, without Trikafta treatment",2.9%
same,FSK+VX-770 AUC/min,"(+) VX-445/VX-661 (3/3 μM), SD-10 100 μM",11.5+/−0.5 μA/cm^2
same,FSK+VX-770 AUC/min,"(+) VX-445/VX-661 (3/3 μM), SD-10 printed '(μM)' / 10 μM",10.4+/−1.2 μA/cm^2
same,FSK+VX-770 AUC/min,"(−) VX-445/VX-661, SD-10 100 μM",4.6+/−0.4 μA/cm^2
same,FSK+VX-770 AUC/min,"(−) VX-445/VX-661, SD-10 printed '(μM)' / 10 μM",5.5+/−0.7 μA/cm^2
"ataaggtaaaagtgatgggatc (antisense ATAAGGTAAAAGTGATGGGATC; all 2'-MOE, all phosphorothioate, methylation of C not given here) [SA8, PS backbone, 2′-MOE]","chloride conductance AUC, of WT","0.1 μM SA08, with Trikafta",about 3.1%
same,"chloride conductance AUC, of WT","1 μM SA08, with Trikafta",~4.9%
same,"chloride conductance AUC, of WT","2 μM SA08, with Trikafta",~6.2%
elexacaftor/ivacaftor/tezacaftor [Trikafta],"Ex22 truncated CFTR function, of WT CFTR function","Trikafta (3/3 μM VX-661/445 48 h, 3 μM VX-770), no ASO",~3%
